Assay results as given in patent US20260217701A1, “SELECTIVE BET INHIBITORS AND USES THEREOF” (Tay Therapeutics Limited, priority 2022, published 2026).
Read-outs that look alike come from different tables or passages of the source.

Test: Dog PK study #3 (Compound A PO once daily 5 days, 5/10/20 mg/kg; PK, body weight, hematology)
Format: in vivo, beagle dogs
Settings: for Tmax / AUC(0-inf) / Cmax / MRT inf / MRT last / half-life / AUC(0-t): male, beagle, dog, plasma, po; for AUC(0-inf): read-out: AUC0-inf; for Cmax: read-out: Cmax; for MRT inf: read-out: MRT0-inf; for MRT last: read-out: MRT0-last; for half-life: read-out: T½ (converted)
Method: For the third dog pharmacokinetic study, three solutions of different concentrations of Compound A were prepared in 5% DMSO/15% PEG-400/80% (10% VE-TPGS) as outlined in Table 2E. The Compound A solutions were administered to animals orally (PO) once daily over a five-day period. Body weight was recorded prior to dosing, and detailed clinical observations were made prior to dosing and throughout the study, as needed.
Animals were divided into Day 1 and Day 5 sample collection groups, with animals in the Day 1 collection group having blood samples taken prior to dosing and at 0.25, 0.5, 1, 2, 4, 8, and 24 hours after dosing on day 1. Animals in the Day 5 collection group having blood samples taken prior to dosing and at 0.25, 0.5, 1, 2, 4, 8, and 24 hours after dosing on day 5. Study groups are outlined in Table 3D.
Blood samples (~0.3 mL) were collected on day according to the following schedule (0.25, 0.5, 1, 2, 4, 8, and 24 h) after day 5 administration of Compound A by venipuncture of peripheral veins except for the dosing vein, and EDTA-K2 was used as anticoagulant. Within 30 minutes of collection, the samples were centrifuged at approximately 2000 times g-force for 10 minutes at 4° C. to obtain blood plasma. The plasma samples were immediately divided into two aliquots (~75 μL each), transferred to a cryogenic vial, and stored in a freezer at −75±15° C. prior to analysis.
The concentration of Compound A in the blood plasma was determined through LC-MS as previously described. Briefly, the experiments were conducted on a DMPK-LCMS-14-SMBA Triple Quad 6500 Plus instrument with an ACQUITY UPLC BEH C18 1.7 μm (50×2.1 mm) column. The matrix was male beagle dog plasma potassium (K2) EDTA A gradient of 95% water (0.1% formic acid and 2 mM HCOONH4)/95% acetonitrile (0.1% formic acid and 2 mM HCOONH4) was used as the mobile phase. The sample flow rate was 0.6 mL/min.
The samples were then vortex-mixed for 10 minutes at 800 rpm and centrifuged for 15 minutes at 3220×g at 4° C. 50 μL aliquots of supernatant were transferred to a clean 96-well plate and centrifuged for 5 minutes at 3220×g at 4° C. Samples were then injected into the LC/MS/MS system for quantitative analysis.
The gathered data were used for pharmacokinetic calculations using T1/2, CO, AUClast, AUCinf, MRTinf, Cl, Vss, and Number of Points for Regression as parameters.
The cell composition (hematology) of blood samples was analyzed at day 5. Analyses identified the total number of white blood cells, neutrophils, lymphocytes, monocytes, eosinophils, basophils, and platelets in collected samples.

[1] = 5 mg/kg, Day 1, 5 mg/kg dose PO, individual animals
[2] = 5 mg/kg, Day 1, 5 mg/kg dose PO, mean
[3] = 5 mg/kg, Day 5, 5 mg/kg dose PO, individual animals
[4] = 5 mg/kg, Day 5, 5 mg/kg dose PO, mean
[5] = 10 mg/kg, Day 1, 10 mg/kg dose PO, individual animals
[6] = 10 mg/kg, Day 1, 10 mg/kg dose PO, mean
[7] = 10 mg/kg, Day 5, 10 mg/kg dose PO, individual animals
[8] = 10 mg/kg, Day 5, 10 mg/kg dose PO, mean
[9] = 20 mg/kg, Day 1, 20 mg/kg dose PO, individual animals
[10] = 20 mg/kg, Day 1, 20 mg/kg dose PO, mean
[11] = 20 mg/kg, Day 5, 20 mg/kg dose PO, individual animals
[12] = 20 mg/kg, Day 5, 20 mg/kg dose PO, mean
[13] = single PO administration Day 1, 10.0 over 5.00 mg/kg, dose ratio 2.00
[14] = single PO administration Day 1, 20.0 over 5.00 mg/kg, dose ratio 4.00
[15] = single PO administration Day 1, 20.0 over 10.0 mg/kg, dose ratio 2.00

For `Cn1cc(-c2ccccc2)c(-c2cn(C)c(=O)c3[nH]c(-c4cnn(C(F)(F)F)c4)cc23)cc1=O` [Compound A, 6-methyl-4-(1-methyl-2-oxo-5-phenyl-1,2-dihydropyridin-4-yl)-2-(1-(trifluoromethyl)-1H-pyrazol-4-yl)-1,6-dihydro-7H-pyrrolo[2,3-c]pyridin-7-one], the Tmax [1] was 8 h, the AUC(0-inf) [1] was 7.88 µg·h/mL and the Cmax [1] was 785 ng/mL. For the same compound, the MRT inf [1] was 9.3 h, the MRT last [1] was 9.77 h and the half-life [1] was 5.63 h. The AUC(0-t) [2] was 9.5 µg·h/mL, the Tmax [2] was 6 h and the Cmax [2] was 736 ng/mL. For the same compound, the MRT last [2] was 8.8 h, the AUC(0-t) [3] was 17.8 µg·h/mL and the Tmax [3] was 2 h. It also gave a Cmax [3] of 1270 ng/mL, an MRT inf [3] of 20 h and an MRT last [3] of 9.78 h. For the same compound, the AUC(0-t) [4] was 14.5 µg·h/mL, the Tmax [4] was 2 h and the AUC(0-inf) [4] was 18.9 µg·h/mL. The Cmax [4] was 1160 ng/mL, the MRT inf [4] was 15.1 h and the MRT last [4] was 8.93 h. It also gave a half-life [4] of 9.96 h, an AUC(0-t) [5] of 19.5 µg·h/mL and a Tmax [5] of 4 h. The AUC(0-inf) [5] was 20.5 µg·h/mL, the Cmax [5] was 2010 ng/mL and the MRT inf [5] was 8.8 h. It also gave an MRT last [5] of 7.59 h, a half-life [5] of 5.24 h and an AUC(0-t) [6] of 17.5 µg·h/mL. It also gave a Tmax [6] of 3 h, an AUC(0-inf) [6] of 18.6 µg·h/mL and a Cmax [6] of 1730 ng/mL. The MRT inf [6] was 9.17 h, the MRT last [6] was 7.72 h and the half-life [6] was 5.6 h. For the same compound, the AUC(0-t) [7] was 20.5 µg·h/mL, the Tmax [7] was 2 h and the AUC(0-inf) [7] was 23 µg·h/mL. The Cmax [7] was 1740 ng/mL, the MRT inf [7] was 11.3 h and the MRT last [7] was 8.5 h. It also gave a half-life [7] of 7.3 h, an AUC(0-t) [8] of 28.3 µg·h/mL and a Tmax [8] of 2 h. It also gave an AUC(0-inf) [8] of 34.1 µg·h/mL, a Cmax [8] of 2260 ng/mL and an MRT inf [8] of 13.4 h. For the same compound, the MRT last [8] was 8.95 h, the half-life [8] was 8.8 h and the AUC(0-t) [9] was 49.4 µg·h/mL. It also gave a Tmax [9] of 4 h, a Cmax [9] of 4330 ng/mL and an MRT inf [9] of 9.65 h. For the same compound, the MRT last [9] was 8.19 h, the AUC(0-t) [10] was 67.9 µg·h/mL and the Tmax [10] was 4 h. It also gave an AUC(0-inf) [10] of 84.7 µg·h/mL, a Cmax [10] of 5160 ng/mL and an MRT inf [10] of 13.9 h. It also gave an MRT last [10] of 9.15 h, a half-life [10] of 8.67 h and a Tmax [11] of 2 h. The Cmax [11] was 3510 ng/mL, the AUC(0-t) [12] was 30.2 µg·h/mL and the Tmax [12] was 2 h. The AUC(0-inf) [12] was 1070 µg·h/mL, the Cmax [12] was 2860 ng/mL and the MRT inf [12] was 483 h. The MRT last [12] was 6.3 h, the half-life [12] was 334 h and the mortality (one animal of the highest dose, 5 day PO study) was “found dead on day 6”. For the same compound, the “AUC0-last Ratio (dose proportionality)” value [13] was 1.85, the “Cmax Ratio (dose proportionality)” value [13] was 2.35 and the “AUC0-last Ratio (dose proportionality)” value [14] was 7.15. The “Cmax Ratio (dose proportionality)” value [14] was 7.02, the “AUC0-last Ratio (dose proportionality)” value [15] was 3.87 and the “Cmax Ratio (dose proportionality)” value [15] was 2.99.
